Reference: patent publication US10159685B2, “Vascular calcification” (Cambridge Enterprise Limited, priority 2016, dated 2018)
Read-outs that look alike come from different tables or passages of the source. Marks after values point to notes of the source that are not given here.

Tests used:
Format in all cases: cell-based
[1] = tested on: bovine vascular smooth muscle cells (bVSMCs); conditions: 7 days; for Cell viability of bVSMCs after seven days (MTT signal, relative to control): mean of three experiments; for Toxicity to bVSMCs (MTT assay, in words): at the concentrations tested (0.5 to 100 μM)
Procedure: The toxicity of the identified compounds to bovine VSMCs was measured using the MTT assay, which measures the activity of dehydrogenase enzymes of live cells. This assay can pick up both cell death and proliferation.
Bovine VSMCs were seeded in 96 well plates and cultured in M199/20% FCS for 1 day. Then, the cells were incubated with inhibitor concentrations from 0.5 to 100 μM (in M199 medium+5% FBS). The cells were incubated with the inhibitors for 7 days; every 2-3 days the medium −/+inhibitors was exchanged. Then, the MTT assay was performed. The stock vehicle DMSO was tested at corresponding concentrations to the inhibitors at 0.1% DMSO or less.

[2] = tested on: human monocyte-macrophages (HMMs); assay: MTT toxicity assay, HMMs, seven days (Example 3); conditions: 7 days; for Cell viability by MTT, percent of control: mean of three experiments; for Toxicity to HMMs (in words): at a concentration of 100 μM
Procedure: A similar set of toxicity experiments was performed with human monocyte-macrophages (HMMs).

[3] = tested on: bovine vascular smooth muscle cells (bVSMCs); assay: o-Cresolphthalein Ca2+ assay, bVSMC GAD calcification model (Examples 4 and 5); conditions: GAD-treated bVSMCs, 10 μM, 7 d
Procedure: For the bVSMCs a GAD medium (10 mM β-glycerophosphate/0.1 mM L-ascorbic acid-2-phosphate/10 nM dexamethasone) model was used to induce mineralization in bVSMCs. Accordingly, cells were seeded in tissue culture plates using M199/20% FCS culture medium and cultured overnight. The next day, cells were treated either with medium only (M199/5% FBS)+/−inhibitors, or with the GAD-medium (10 mM β-glycerophosphate/0.1 mM L-ascorbic acid-2-phosphate/[…] dexamethasone)+/−inhibitors.
Medium+/−inhibitors was exchanged every 2-3 days. […]
The o-Cresolphthalein assay is a spectrophotometric method for measuring Ca^2+-concentrations in cell/tissue lysates. Following the calcification experiments, cells are briefly washed to remove medium and 100 […]1 of 0.1 N HCl is added to each well to dissolve any mineral deposits. Then, the Ca^2+-concentration of the samples is measured spectrophotometrically (at 570 nm) in the o-cresolphthalein assay with the help of a CaCl2 standard curve in a concentration range of ˜0.02-270 µg Ca^2+/ml.
The commercial BioRad DC protein assay is based on the Lowry method, aka reaction of proteins with a copper-tartrate complex and subsequent reaction with Folin's reagent. Following the calcification experiment, cells are briefly washed to remove medium and 100 µl of solubilisation solution (0.1 M NaOH/1% SDS/DIW) is added to each well to lyse the cells. The protein concentrations of the lysates are subsequently determined in the BioRad DC assay as per supplier's instructions using BSA (bovine serum albumin) as standard.
The in vitro model is the same as the model used in example 4; bovine vascular smooth muscle cells (bVSMCs) cultured so that they produce extracellular matrix, with the addition of the GAD medium (10 mM β-glycerophosphate/0.1 mM L-ascorbic acid-2-phosphate/10 nM dexamethasone).
As above, cells were treated either with medium only (“no-additions”; NA)+/−inhibitors, or with the GAD-medium+/−inhibitors. The inhibitors used were PJ34 and minocyclin (MC) at 10 μM, 1 μM and 0.1 μM.
The methodology was the same as that described in example 4.

[4] = tested on: human vascular smooth muscle cells (hVSMCs); assay: o-Cresolphthalein Ca2+ assay, hVSMC Ca/P calcification model (Examples 7-9); conditions: for Inhibition of calcification, normalised results (FIG. 27) / Normalised calcium levels (mass of calcium per mass of protein, FIG. 22): hVSMCs, 8 days; for Inhibition of calcification, normalised results (FIG. 27): concentrations between 0.05 μM and 3 μM; for Extracellular matrix calcification (summary statement): bovine cell and human cell in vitro vascular calcification model; for Normalised calcium levels (mass of calcium per mass of protein, FIG. 22): 3 μM
Procedure: (§1) Primary hVSMCs were cultured in M199 media containing FBS (M199/5% FBS). They were plated at a known cell density, allowed to grow for 24 hours and then treated with control (DMSO only) or calcification media (DMSO containing 2.7 mM Calcium+2.5 mM phosphate)+/−inhibitors. After 6 days, calcification was assessed using the o-Cresolphthalein assay for quantification of Ca^2+ deposition and a BioRad protein assay for protein content.
Medium+/−inhibitors was exchanged every 2-3 days.
as §1, with “8” for “6”, “using” for “using the”
All of the compounds tested were used at a concentration of 3 μM. Medium+/−inhibitors was exchanged every 2-3 days.
as §1, with “phosphate)+/−compounds.” for “phosphate)+/−inhibitors.”, “8” for “6”, “using” for “using the”
These concentrations were chosen to mimic the systemic concentrations of these drugs following patient dosing according to the dose schedule in the prescribing information for each drug. Medium+/−inhibitors was exchanged every 2-3 days.

| Compound | Cell viability of bVSMCs after seven days (MTT signal, relative to control) ([1]; 0.5 uM) | Cell viability of bVSMCs after seven days (MTT signal, relative to control) ([1]; 1 uM) | Cell viability of bVSMCs after seven days (MTT signal, relative to control) ([1]; 2 uM) | Cell viability of bVSMCs after seven days (MTT signal, relative to control) ([1]; 5 uM) | Cell viability of bVSMCs after seven days (MTT signal, relative to control) ([1]; 10 uM) | Cell viability of bVSMCs after seven days (MTT signal, relative to control) ([1]; 20 uM) | Cell viability of bVSMCs after seven days (MTT signal, relative to control) ([1]; 50 uM) | Cell viability of bVSMCs after seven days (MTT signal, relative to control) ([1]; 100 uM) | Toxicity to bVSMCs (MTT assay, in words) [1] | Cell viability by MTT, percent of control ([2]; 0.5 uM) | Cell viability by MTT, percent of control ([2]; 1 uM) | Cell viability by MTT, percent of control ([2]; 2 uM) | Cell viability by MTT, percent of control ([2]; 5 uM) | Cell viability by MTT, percent of control ([2]; 10 uM) | Cell viability by MTT, percent of control ([2]; 20 uM) | Cell viability by MTT, percent of control ([2]; 50 uM) | Cell viability by MTT, percent of control ([2]; 100 uM) | Toxicity to HMMs (in words) [2] | Inhibition of calcification, normalised results (FIG. 27) [4] | Extracellular matrix calcification (summary statement) [4] | other results |
| --- | --- | --- | --- | --- | --- | --- | --- | --- | --- | --- | --- | --- | --- | --- | --- | --- | --- | --- | --- | --- | --- |
| O=C1NCCc2c(OCCCCN3CCCCC3)cccc21 [DPQ, 3,4-dihydro-5-[4-(1-piperidinyl)butoxyl]-1(2H)-isoquinolinone] | 100.30 | 101.78 | 92.11* | 94.96 | 92.58* | 94.24* | 89.46* | 89.87* | virtually non-toxic | 106.61 | 88.68 | 89.59 | 95.11 | 91.82 | 91.99 | 86.74 | 90.94 | relatively innocuous |  |  |  |
| COc1ccc([C@@H]2Sc3ccccc3N(CCN(C)C)C(=O)[C@@H]2OC(C)=O)cc1 [Diltiazem, diltiazem] | 98.78 | 96.07 | 89.48* | 91.88* | 94.54 | 113.60* | 143.28* | 119.64* | non-toxic | 97.10 | 104.94 | 99.61 | 91.09 | 92.45 | 100.42 | 92.16 | 53.65* | most toxic |  |  | Stimulatory effect on bVSMCs (MTT assay) ([1]; at 20 μM and above): stimulatory effect; Calcium levels (mass of calcium, FIG. 7B) compared to no inhibitors [3]: lower calcium levels; Normalised calcium levels (mass of calcium per mass of protein, FIG. 9B) [3]: slightly lower calcium levels |
| CC(=O)CCCCn1c(=O)c2c(ncn2C)n(C)c1=O [Pentoxifylline, pentoxifylline] | 97.68 | 95.91 | 92.19* | 91.33* | 91.77* | 92.43* | 93.01* | 96.96 | virtually non-toxic | 98.73 | 90.57 | 91.92 | 107.27 | 88.35 | 93.54 | 89.28 | 89.64 | relatively innocuous | do not inhibit calcification |  | Calcium levels (mass of calcium, FIG. 7B) compared to no inhibitors [3]: no effect; Normalised calcium levels (mass of calcium per mass of protein, FIG. 9B) [3]: slightly lower calcium levels |
| CC(C)c1c(C(=O)Nc2ccccc2)c(-c2ccccc2)c(-c2ccc(F)cc2)n1CC[C@@H](O)C[C@@H](O)CC(=O)O [atorvastatin] |  |  |  |  |  |  |  |  |  |  |  |  |  |  |  |  |  |  | do not inhibit medial vascular calcification |  |  |
| COc1ccccc1Oc1c(NS(=O)(=O)c2ccc(C(C)(C)C)cc2)nc(-c2ncccn2)nc1OCCO [bosentan MH, Bosentan monohydrate] | 101.97 | 96.12 | 91.91* | 93.05* | 93.87* | 97.20 | 103.69 | 85.05* | little toxicity | 91.59 | 99.82 | 97.16 | 84.90 | 79.36 | 83.25 | 73.65 | 64.97* | most toxic | do not inhibit calcification |  | Calcium levels (mass of calcium, FIG. 7B) compared to no inhibitors [3]: no effect; Normalised calcium levels (mass of calcium per mass of protein, FIG. 9B) [3]: slightly lower calcium levels |
| CCCCc1nc(Cl)c(CO)n1Cc1ccc(-c2ccccc2-c2nn[nH]n2)cc1 [losartan] |  |  |  |  |  |  |  |  |  |  |  |  |  |  |  |  |  |  | do not inhibit medial vascular calcification |  |  |
| NC(=O)c1cccc2cn(-c3ccc([C@@H]4CCCNC4)cc3)nc12 [niraparib] |  |  |  |  |  |  |  |  |  |  |  |  |  |  |  |  |  |  |  | significantly reduce extracellular matrix calcification | Normalised calcium levels (mass of calcium per mass of protein, FIG. 22) [4]: particularly effective |
| O=C(c1cc(Cc2n[nH]c(=O)c3ccccc23)ccc1F)N1CCN(C(=O)C2CC2)CC1 [olaparib] |  |  |  |  |  |  |  |  |  |  |  |  |  |  |  |  |  |  |  | significantly reduce extracellular matrix calcification |  |
| CNCc1ccc(-c2[nH]c3cc(F)cc4c3c2CCNC4=O)cc1 [rucaparib] |  |  |  |  |  |  |  |  |  |  |  |  |  |  |  |  |  |  |  | significantly reduce extracellular matrix calcification | Normalised calcium levels (mass of calcium per mass of protein, FIG. 22) [4]: particularly effective |
| Cn1ncnc1[C@H]1c2n[nH]c(=O)c3cc(F)cc(c23)N[C@@H]1c1ccc(F)cc1 [talazoparib] |  |  |  |  |  |  |  |  |  |  |  |  |  |  |  |  |  |  |  | significantly reduce extracellular matrix calcification |  |
| C[C@]1(c2nc3c(C(N)=O)cccc3[nH]2)CCCN1 [veliparib] |  |  |  |  |  |  |  |  |  |  |  |  |  |  |  |  |  |  | inhibit calcification significantly and repeatedly | significantly reduce extracellular matrix calcification | Normalised calcium levels (mass of calcium per mass of protein, FIG. 22) [4]: particularly effective |
